Reference: the supplement of paper PMC10883282

Tests used:
Test in all cases: relative viability vs DMSO control (72 h) (fraction); higher = more viable cells
SW1353 = system: SW1353
Procedure, shortened: (§1)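 After seeding at densities set for 80–90% confluence in 384-well plates, sarcoma cell lines waited 24 h before 2.5 µl of serially diluted compound was added. Source plates held 10 mM down to 0.0002 mM. Plates were incubated 72 h at 37 °C with 5% CO2, with 0.1% DMSO vehicle and a 5 µM positive control, and relative viability was taken from ATPLite as percent growth averaged over up to triplicate wells, with 1 set as full and 0 as none.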

SK-LMS-1 = system: SK-LMS-1
Procedure, shortened: as §1

RD = system: RD
Procedure, shortened: as §1

KHOS-240S = system: KHOS-240S
Procedure, shortened: as §1

SW872 = system: SW872
Procedure, shortened: as §1

G401 = system: G401
Procedure, shortened: as §1

HS729 = system: HS729
Procedure, shortened: as §1

RD-ES = system: RD-ES
Procedure, shortened: as §1

SW684 = system: SW684
Procedure, shortened: as §1

SYO-1 = system: SYO-1
Procedure, shortened: as §1

KHOS-NP = system: KHOS-NP
Procedure, shortened: as §1

HT1080 = system: HT1080
Procedure, shortened: as §1

CN(C)C[C@@H]1CCn2cc(c3ccccc32)C2=C(C(=O)NC2=O)c2cn(c3ccccc23)CCO1 [Ruboxistaurin]
Conditions	relative viability
G401, 0.00017 µM	1.03
G401, 0.00051 µM	1.01
G401, 0.00152 µM	0.988
G401, 0.00457 µM	1.01
G401, 0.01372 µM	1.02
G401, 0.04115 µM	0.961
G401, 0.1235 µM	1.02
G401, 0.3704 µM	1.01
G401, 1.111 µM	0.958
G401, 3.333 µM	0.938
G401, 10 µM	0.0283
HS729, 0.00017 µM	0.917
HS729, 0.00051 µM	0.936
HS729, 0.00152 µM	0.8749
HS729, 0.00457 µM	0.882
HS729, 0.01372 µM	0.895
HS729, 0.04115 µM	0.939
HS729, 0.1235 µM	0.894
HS729, 0.3704 µM	0.819
HS729, 1.111 µM	0.917
HS729, 3.333 µM	0.835
HS729, 10 µM	0.812
HT1080, 0.00017 µM	1.06
HT1080, 0.00051 µM	1.1
HT1080, 0.00152 µM	1.05
HT1080, 0.00457 µM	1.04
HT1080, 0.01372 µM	1.05
HT1080, 0.04115 µM	1.06
HT1080, 0.1235 µM	1.08
HT1080, 0.3704 µM	1.03
HT1080, 1.111 µM	1.08
HT1080, 3.333 µM	1.12
HT1080, 10 µM	0.904
KHOS-240S, 0.00017 µM	1.04
KHOS-240S, 0.00051 µM	1.05
KHOS-240S, 0.00152 µM	1.03
KHOS-240S, 0.00457 µM	1.04
KHOS-240S, 0.01372 µM	1.02
KHOS-240S, 0.04115 µM	1.02
KHOS-240S, 0.1235 µM	1.03
KHOS-240S, 0.3704 µM	1.014
KHOS-240S, 1.111 µM	1.04
KHOS-240S, 3.333 µM	1.03
KHOS-240S, 10 µM	0.715
KHOS-NP, 0.00017 µM	1.09
KHOS-NP, 0.00051 µM	1.09
KHOS-NP, 0.00152 µM	1.06
KHOS-NP, 0.00457 µM	1.07
KHOS-NP, 0.01372 µM	1.06
KHOS-NP, 0.04115 µM	1.08
KHOS-NP, 0.1235 µM	1.073
KHOS-NP, 0.3704 µM	1.093
KHOS-NP, 1.111 µM	1.1
KHOS-NP, 3.333 µM	1.073
KHOS-NP, 10 µM	1.045
RD, 0.00017 µM	1.09
RD, 0.00051 µM	1.09
RD, 0.00152 µM	1.11
RD, 0.00457 µM	1.12
RD, 0.01372 µM	1.11
RD, 0.04115 µM	1.1
RD, 0.1235 µM	1.12
RD, 0.3704 µM	1.1
RD, 1.111 µM	1.127
RD, 3.333 µM	1.08
RD, 10 µM	0.857
RD-ES, 0.00017 µM	0.981
RD-ES, 0.00051 µM	0.993
RD-ES, 0.00152 µM	0.9893
RD-ES, 0.00457 µM	0.988
RD-ES, 0.01372 µM	0.952
RD-ES, 0.04115 µM	0.978
RD-ES, 0.1235 µM	0.956
RD-ES, 0.3704 µM	0.993
RD-ES, 1.111 µM	0.96
RD-ES, 3.333 µM	0.862
RD-ES, 10 µM	0.0404
SK-LMS-1, 0.00017 µM	1.05
SK-LMS-1, 0.00051 µM	1.02
SK-LMS-1, 0.00152 µM	1.05
SK-LMS-1, 0.00457 µM	1.05
SK-LMS-1, 0.01372 µM	1.09
SK-LMS-1, 0.04115 µM	1.08
SK-LMS-1, 0.1235 µM	1.05
SK-LMS-1, 0.3704 µM	0.995
SK-LMS-1, 1.111 µM	0.922
SK-LMS-1, 3.333 µM	0.778
SK-LMS-1, 10 µM	0.4619
SW684, 0.00017 µM	1.12
SW684, 0.00051 µM	1.157
SW684, 0.00152 µM	1.158
SW684, 0.00457 µM	1.17
SW684, 0.01372 µM	1.16
SW684, 0.04115 µM	1.11
SW684, 0.1235 µM	1.15
SW684, 0.3704 µM	1.16
SW684, 1.111 µM	1.14
SW684, 3.333 µM	1.15
SW684, 10 µM	0.857
SW872, 0.00017 µM	1
SW872, 0.00051 µM	1.04
SW872, 0.00152 µM	1.02
SW872, 0.00457 µM	1.06
SW872, 0.01372 µM	0.989
SW872, 0.04115 µM	1.04
SW872, 0.1235 µM	1.01
SW872, 0.3704 µM	1.02
SW872, 1.111 µM	0.9094
SW872, 3.333 µM	0.846
SW872, 10 µM	0.599
SW1353, 0.00017 µM	1.02
SW1353, 0.00051 µM	1.01
SW1353, 0.00152 µM	0.983
SW1353, 0.00457 µM	0.99
SW1353, 0.01372 µM	0.975
SW1353, 0.04115 µM	0.994
SW1353, 0.1235 µM	0.961
SW1353, 0.3704 µM	0.977
SW1353, 1.111 µM	0.894
SW1353, 3.333 µM	0.827
SW1353, 10 µM	0.252
SYO-1, 0.00017 µM	0.962
SYO-1, 0.00051 µM	0.9554
SYO-1, 0.00152 µM	0.962
SYO-1, 0.00457 µM	0.941
SYO-1, 0.01372 µM	0.931
SYO-1, 0.04115 µM	0.933
SYO-1, 0.1235 µM	0.899
SYO-1, 0.3704 µM	0.849
SYO-1, 1.111 µM	0.79
SYO-1, 3.333 µM	0.347
SYO-1, 10 µM	-0.0266

CN1CCN(CCOc2cc(OC3CCOCC3)c3c(Nc4c(Cl)ccc5c4OCO5)ncnc3c2)CC1 [Saracatinib]
Conditions	relative viability
G401, 0.00017 µM	1.03
G401, 0.00051 µM	1.05
G401, 0.00152 µM	1.008
G401, 0.00457 µM	1.04
G401, 0.01372 µM	1.05
G401, 0.04115 µM	1.01
G401, 0.1235 µM	0.955
G401, 0.3704 µM	0.912
G401, 1.111 µM	0.86
G401, 3.333 µM	0.797
G401, 10 µM	0.668
HS729, 0.00017 µM	1
HS729, 0.00051 µM	0.991
HS729, 0.00152 µM	0.97
HS729, 0.00457 µM	0.983
HS729, 0.01372 µM	0.885
HS729, 0.04115 µM	0.867
HS729, 0.1235 µM	0.869
HS729, 0.3704 µM	0.792
HS729, 1.111 µM	0.691
HS729, 3.333 µM	0.62
HS729, 10 µM	0.627
HT1080, 0.00017 µM	1.05
HT1080, 0.00051 µM	1.04
HT1080, 0.00152 µM	1.05
HT1080, 0.00457 µM	1.01
HT1080, 0.01372 µM	1.022
HT1080, 0.04115 µM	1.02
HT1080, 0.1235 µM	1.053
HT1080, 0.3704 µM	1.04
HT1080, 1.111 µM	1.01
HT1080, 3.333 µM	0.952
HT1080, 10 µM	0.859
KHOS-240S, 0.00017 µM	1.07
KHOS-240S, 0.00051 µM	1.08
KHOS-240S, 0.00152 µM	1.07
KHOS-240S, 0.00457 µM	1.07
KHOS-240S, 0.01372 µM	1.07
KHOS-240S, 0.04115 µM	1.08
KHOS-240S, 0.1235 µM	1.046
KHOS-240S, 0.3704 µM	0.934
KHOS-240S, 1.111 µM	0.802
KHOS-240S, 3.333 µM	0.614
KHOS-240S, 10 µM	0.451
KHOS-NP, 0.00017 µM	1.094
KHOS-NP, 0.00051 µM	1.1
KHOS-NP, 0.00152 µM	1.08
KHOS-NP, 0.00457 µM	1.07
KHOS-NP, 0.01372 µM	1.07
KHOS-NP, 0.04115 µM	1.061
KHOS-NP, 0.1235 µM	1.06
KHOS-NP, 0.3704 µM	1.05
KHOS-NP, 1.111 µM	0.994
KHOS-NP, 3.333 µM	0.862
KHOS-NP, 10 µM	0.693
RD, 0.00017 µM	1.05
RD, 0.00051 µM	1.08
RD, 0.00152 µM	1.096
RD, 0.00457 µM	1.08
RD, 0.01372 µM	1.07
RD, 0.04115 µM	1.01
RD, 0.1235 µM	0.948
RD, 0.3704 µM	0.836
RD, 1.111 µM	0.786
RD, 3.333 µM	0.692
RD, 10 µM	0.642
RD-ES, 0.00017 µM	0.975
RD-ES, 0.00051 µM	1
RD-ES, 0.00152 µM	0.99
RD-ES, 0.00457 µM	1.01
RD-ES, 0.01372 µM	0.979
RD-ES, 0.04115 µM	0.982
RD-ES, 0.1235 µM	0.966
RD-ES, 0.3704 µM	0.935
RD-ES, 1.111 µM	0.898
RD-ES, 3.333 µM	0.858
RD-ES, 10 µM	0.735
SK-LMS-1, 0.00017 µM	1.03
SK-LMS-1, 0.00051 µM	1.06
SK-LMS-1, 0.00152 µM	1.05
SK-LMS-1, 0.00457 µM	1.04
SK-LMS-1, 0.01372 µM	1.02
SK-LMS-1, 0.04115 µM	1.05
SK-LMS-1, 0.1235 µM	0.973
SK-LMS-1, 0.3704 µM	0.933
SK-LMS-1, 1.111 µM	0.864
SK-LMS-1, 3.333 µM	0.71
SK-LMS-1, 10 µM	0.491
SW684, 0.00017 µM	1.11
SW684, 0.00051 µM	1.15
SW684, 0.00152 µM	1.16
SW684, 0.00457 µM	1.177
SW684, 0.01372 µM	1.15
SW684, 0.04115 µM	1.17
SW684, 0.1235 µM	1.14
SW684, 0.3704 µM	1.15
SW684, 1.111 µM	1.07
SW684, 3.333 µM	1.05
SW684, 10 µM	1.08
SW872, 0.00017 µM	1.07
SW872, 0.00051 µM	1.05
SW872, 0.00152 µM	1.06
SW872, 0.00457 µM	1.019
SW872, 0.01372 µM	1.05
SW872, 0.04115 µM	0.977
SW872, 0.1235 µM	0.9173
SW872, 0.3704 µM	0.828
SW872, 1.111 µM	0.693
SW872, 3.333 µM	0.655
SW872, 10 µM	0.59
SW1353, 0.00017 µM	1.03
SW1353, 0.00051 µM	0.988
SW1353, 0.00152 µM	1.02
SW1353, 0.00457 µM	0.996
SW1353, 0.01372 µM	0.945
SW1353, 0.04115 µM	0.929
SW1353, 0.1235 µM	0.891
SW1353, 0.3704 µM	0.843
SW1353, 1.111 µM	0.7072
SW1353, 3.333 µM	0.6847
SW1353, 10 µM	0.666
SYO-1, 0.00017 µM	1.02
SYO-1, 0.00051 µM	1.02
SYO-1, 0.00152 µM	0.971
SYO-1, 0.00457 µM	0.965
SYO-1, 0.01372 µM	0.958
SYO-1, 0.04115 µM	0.917
SYO-1, 0.1235 µM	0.91
SYO-1, 0.3704 µM	0.826
SYO-1, 1.111 µM	0.66
SYO-1, 3.333 µM	0.481
SYO-1, 10 µM	0.389
